Results from US20240226225A1 (Protagonist Therapeutics, Inc., priority 2021, published 2024).
Values belong to the compound of their own block, whether it stands above or below them.

Key:
[1] = target: T1, ferroportin (Homo sapiens, UniProt Q9NP59); experiment: FPN activity assay: internalization/degradation of ferroportin-GFP in stably transfected HEK293 cells, decrease in GFP fluorescence; type: cell-based; parameters: expressed in transfected cells; settings: HEK293 cells stably expressing ferroportin-GFP, at least 18 hours incubation; read-out: FPN EC50
T1 sequence (Q9NP59 1-571): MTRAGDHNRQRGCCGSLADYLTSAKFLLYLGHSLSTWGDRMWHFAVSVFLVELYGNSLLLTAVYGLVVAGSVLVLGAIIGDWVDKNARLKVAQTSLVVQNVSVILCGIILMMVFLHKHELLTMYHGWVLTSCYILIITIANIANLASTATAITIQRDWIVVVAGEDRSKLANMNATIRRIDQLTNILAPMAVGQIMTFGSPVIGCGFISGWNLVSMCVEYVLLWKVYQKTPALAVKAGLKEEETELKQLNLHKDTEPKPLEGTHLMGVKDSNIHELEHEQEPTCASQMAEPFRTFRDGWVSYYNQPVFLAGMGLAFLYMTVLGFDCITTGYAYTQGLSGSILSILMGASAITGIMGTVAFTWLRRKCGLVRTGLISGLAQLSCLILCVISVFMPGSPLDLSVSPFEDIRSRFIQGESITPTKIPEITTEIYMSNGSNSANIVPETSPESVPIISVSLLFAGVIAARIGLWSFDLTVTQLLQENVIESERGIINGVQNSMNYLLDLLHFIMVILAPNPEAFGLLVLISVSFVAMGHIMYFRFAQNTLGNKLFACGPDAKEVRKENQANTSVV

[2] = target: T1, ferroportin; experiment: T47D cell-based ferroportin internalization assay in presence of 0.5% mouse serum albumin (MSA), AF647-conjugated detection peptide, flow cytometry; parameters: a human breast carcinoma adherent cell line which endogenously expresses ferroportin; host or cells: T47D; settings: T47D cells, 1 hr incubation
Protocol: The potency of the peptides in causing ferroportin internalization was evaluated in a T47D cell-based assay. […] In this internalization assay, the potency of the test peptides was evaluated in presence of serum albumin which is the main protein component in the blood. T47D cells were maintained in RPMI media (containing required amount of fetal bovine serum) and regularly sub-cultured. In preparation for the assay, the cells were seeded in 96-well plates at a density of 80-100 k cells per well in 100 ul volume and allowed to rest overnight. On the next day, test peptides were first prepared in dilution series (10-point series, starting concentration of ˜5 μM, typically 3-4×fold dilution steps), all with 0.5% mouse serum albumin (MSA purified from mouse serum; Sigma, A3139). The test peptide dilution series were allowed to incubate at room temperature for 30 min. Then the media was aspirated from the 96-well cell plate and test peptide dilution series were added. After 1 hr incubation, the media with test peptides was aspirated out and AF647-conjugated detection peptide was added at fixed concentration of 200 nM. The AF647-conjugated detection peptide was previously verified to bind to ferroportin and cause its internalization. The cells were washed again after a 2 hr incubation in preparation for flow cytometry analysis. The Median Fluorescence Intensity (MFI) of the AF647-positive population was measured (after removing dead cells and non-singlets from the analysis). The MFI values were used to generate a dose-response curve and obtain IC50 potencies for the test peptides. The IC50 potencies were calculated by using 4-parameter non-linear fitting function in Graphpad Prism (Table 2A).

[3] = test system: ferroportin fused to green fluorescent protein; settings: read-out: EC50 (50% of the maximal loss of fluorescence); cells incubated for 24 hours with graded concentrations; cited from earlier work
[4] = target: human ferroportin (SLC40A1) fused in frame with GFP, stably expressed in HEK293 cells (human) (UniProt Q9NP59); experiment: cell-based or functional assay

DC50 [1]: 10 to 100 nM | IC50 [2]: 10 to 100 nM
Compound: CC[C@H](C)[C@@H]1NC(=O)[C@@H](NC(=O)[C@@H]2CCCN2C(=O)[C@@H](NC(=O)[C@H](Cc2cnc[nH]2)NC(=O)[C@@H](NC(=O)[C@H](CC2N=NN=N2)NC(=O)CC(C)C)[C@@H](C)O)C(c2ccccc2)c2ccccc2)CSSC[C@@H](C(N)=O)NC(=O)[C@@H](CCCCN)NC(=O)C[C@H](Cc2ccccc2)NC(=O)[C@H](CCCCNC(=O)COCCOCCNC(=O)COCCOCCNC(=O)[C@H](CN)NC(=O)CCCCCCCCCCCCCCCCC(=O)O)NC1=O [Compd 53, Isovaleric_Acid-[Tet1]-T-H-[Dpa]-P-[Cys]-I-[Lys(1PEG2_1PEG2_Dap_C18_Diacid)]-[bhphe]-[(D)Lys]-[Cys]-NH2]

Compound: Hy-DTHFPIC(1)IFC(2)C(3)GC(2)C(4)HRSKC(3)GMC(4)C(1)KT-OH [Hepcidin]
EC50 [3]: 5 to 15 nM

Potency EC50 (nM), FPN activity assay (ferroportin-GFP internalization/degradation, HEK293 cells) [4]: 712 nM
Compound: Mini-Hepcidin 1-9, Hy-…-NH2 (peptide)

Potency EC50 (nM), FPN activity assay (ferroportin-GFP internalization/degradation, HEK293 cells) [4]: > 10000 nM
Compound: RI-Mini Hepcidin, Hy-DPhe-DIle-DCys-DIle-DPro-DPhe-DHis-DThr-DAsp-NH2 (peptide)
